Test results: patent US20260055088A1, “HETEROCYCLIC COMPOUND, METHOD FOR PREPARING SAME, AND PHARMACEUTICAL USE THEREOF” (Jiangsu Hengrui Pharmaceuticals Co., Ltd., priority 2022, published 2026)
In brackets after ≈: the same amount, converted by molar mass. Read-outs that look alike come from different tables or passages of the source.

Assays:
[1] = target: Nav1.8 ion channel stably expressed on HEK293 cells (Homo sapiens (Human), UniProt Q9Y5Y9); assay: Inhibitory activity against Nav1.8, manual patch clamp; type: cell-based; settings: resting protocol (-80 mV to 10 mV), 1 μM TTX, read-out: IC50 for the inhibition of Nav1.8 channel activity
[2] = Solubility in FassIF and FessIF solutions; type: physicochemical; settings: thermodynamic from solid, 37° C.
Text: Reagents: dimethyl sulfoxide (chromatographically pure, Sigma-Aldrich, Cat. No. 472301-4X4L), ethanol (chromatographically pure, CNW, Cat. No. 4.016362.4000), acetonitrile (chromatographically pure, FISHER, Cat. No. A998-4), NaH2PO4·2H2O (analytically pure, Sinopharm Chemical Reagent Co., Ltd., Cat. No. 20040717), ammonium acetate (chromatographically pure, ALADDIN, Cat. No. 17836-250G), FaSSIF/FeSSIF/FaSSGF powder (Biorelevant, Cat. No. FFF02), FaSSIF buffer concentrate (Biorelevant, Cat. No. FASBUF), FeSSIF buffer concentrate (Biorelevant, Cat. No. FESBUF), and ultrapure water (made in-house using an ELGA CHORUS laboratory water purification system).
Instrument: Agilent 1200 DAD liquid chromatograph (Agilent, U.S.)
FaSSIF solution: 2.0825 g of FaSSIF medium solution and 48.055 g of ultrapure water were weighed into a 50-mL beaker, and 0.112 g of FaSSIF/FeSSIF/FaSSGF powder was then added to the beaker. The mixture was stirred to dissolve the powder, and the solution was then equilibrated by standing for 2 h before use (the solution should be used within 48 h). […]
3.1. […] 10 μL of the stock solution (concentration 10 mM, dissolved in DMSO) was precisely measured out and well mixed with 990 μL of an organic solvent mixture (usually DMSO:acetonitrile:ethanol=1:1:1) in a 2-mL sample flask to form a 100 μM clear sample solution. […]

## COc1c([C@H]2[C@H](C(=O)Nc3ccnc(C(=N)N)c3)O[C@@](C)(C(F)(F)F)[C@H]2C)ccc(F)c1F [Example 20, (2R,3S,4S,5R)—N-(2-Carbamimidoylpyridin-4-yl)-3-(3,4-difluoro-2-methoxyphenyl)-4,5-dimethyl-5-(trifluoromethyl)tetrahydrofuran-2-carboxamide]
[1]
  IC50: 0.24 nM
[2]; FassIF solution, read-out: Solubility in FassIF solution
  solubility at 24 h: 308 µM (≈ 145 µg/mL)
[2]; FessIF solution, read-out: Solubility in FessIF solution
  solubility at 24 h: 2410 µM (≈ 1140 µg/mL)
